The source of these data is patent US9133435B2, “Method for induction/differentiation into photoreceptor cell” (RIKEN, priority 2007, dated 2015).

Data set [1] concerns FACS-purified ES-derived Rx-GFP+ retinal progenitor cells. In words: Differentiation of FACS-purified ES-derived retinal progenitor cells into Crx+ photoreceptor precursors (immunostaining). The class given is cell-based, mouse. The procedure: Methods for mouse ES cell maintenance and differentiation in SFEB conditions were previously reported (reference documents A7, 20). For the sake of the SFEB/DLFA, Dkk1 (R & D Systems, 100 ng/ml, during days 0-5), LeftyA (R & D Systems, 500 ng/ml, during days 0-5), 5% FCS (JRH Biosciences, during days 3-5), and Activin-A (R & D Systems, 10 ng/ml, during days 4-5) were added to a differentiation medium (G-MEM, 5% KSR, 0.1 mM non-essential amino acids, 1 mM pyruvic acid, and 0.1 mM 2-mercaptoethanol) (reference document A6).
(§1) For FACS (see below), until day 9, cell aggregates were incubated in a differentiation medium under suspension culture conditions. After FACS, 1−2×10^4 sorted cells were re-suspended in a differentiation medium containing 10% FCS, and to produce re-aggregated pellets, the suspension was centrifuged at 800 g for 10 minutes. After cultivation at 37° C. for 1 hour, three to five re-aggregated pellets per cm^2 were replated on a poly-D-lysine/laminin/fibronectin-coated culture slides with a differentiation medium supplemented with 10% FCS. On day 10, the culture medium was changed to a differentiation medium not containing FCS, and containing or not containing the gamma secretase inhibitor N—[N-(3,5-difluorophenacetyl)-L-alanyl]-S-phenylglycine t-butyl ester (DAPT, 10 μM, Calbiochem).
On day 9, SFEB/DLFA-treated ES cell aggregates were dissociated with trypsin (0.25%, Invitrogen) and DNaseI (10 μg/ml, Sigma) into single cells. After neutralization, the cells were re-suspended in HBSS containing 0.1% BSA and 5 μg/ml propidium iodide (PI, Sigma), and passed through a cell strainer (BD) as described previously (reference documents A7, 21). The cells were counted and sorted using FACS Aria (BD Biosciences), and data were analyzed using the FACS Diva software (BD Biosciences). Dead cells were excluded by gating forward and side scatter and PI staining. Cells with Rx-GFP fluorescence (band-pass filter: FITC, 530 nm) were sorted and further cultured. […]
(§2) The immunoreactivity of each antibody was confirmed by immunostaining an appropriate retinal tissue as a positive control under the same conditions. Total cell counts were determined by counting nuclei stained by TOTO-3 or DAPI (Molecular Probes). Positive cells were counted in optical slice images prepared by confocal (Leica) or ApoTome (Zeiss) microscopy.
For statistical analyses, at least 2500 cells were examined in each experiment, which was performed at least 3 times. […] The statistical significance of differences was determined by one-way analysis of variance (ANOVA) followed by Tukey's test for the experiments in FIG. 1f, by one-way ANOVA followed by Dunnett's multiple comparison test for the experiment in FIG. 3b, by two-way ANOVA followed by Bonferroni's test for the experiment in FIG. 1j-l. […]

Another data set deals with Retinae of E17.5 mouse. Description: Tissue culture of embryonic retina treated with DAPT (Crx staining, RT-PCR). As to conditions: 10 μM DAPT. The format is cell-based. The procedure: FIG. 4 The gamma secretase inhibitor DAPT promotes the differentiation of photoreceptor precursors. Retinae of E17.5 mouse were treated, or not treated, with 10 μM DAPT under tissue culture conditions for 2-4 days. (a, b) Two days later, the retinae were stained for Crx (green) and TOTO-3 (blue). Many Crx^+ (green) photoreceptor precursors were found in the DAPT-treated retina (a), whereas several Crx^+ were found in non-treated retina (b). GC, ganglion cell layer; NBL, neuroblastic layer; ONL, outer nuclear layer. (c) RT-PCR analysis of retina treated or not treated with DAPT for 2 or 4 days. It was confirmed that the expression of Hes1 and Hes5 had been decreased in the DAPT-treated retina.
RT-PCR analysis was performed as reported previously (reference documents A7, 20). The primers used are as follows: […]

Another data set concerns purified Rx+ cells. Description: Ki67 expression, BrdU uptake and active caspase 3 in purified Rx+ cells. The class given is cell-based, mouse. The procedure:
as §1
BrdU uptake was examined by culturing the cells in a medium containing 5 μg/ml BrdU for 24 hours before fixation.
(§3) Immunohistological staining was performed as described previously (reference documents A20, 24). The primary antibodies used in this study were as follows: • Anti-Crx (rat/polyclonal/1:200, reference document A6), • Anti-Ki67 (mouse/monoclonal/1:200/BD), • Anti-BrdU (mouse/monoclonal/1:50/BD), • Anti-active caspase-3 (rabbit/monoclonal/1:500/BD), • Anti-red/green opsin (rabbit/polyclonal/1:1000/Chemicon), • Anti-blue opsin (rabbit/polyclonal/1:500/Chemicon), • Anti-rhodopsin (RetP1; mouse/monoclonal/1:1000/SIGMA) and • Anti-Recoverin (rabbit/polyclonal/1:5000/Chemicon).
as §2
(§4) For statistical analyses, at least 2500 cells were examined in each experiment, which was performed at least 3 times. All statistical analyses were performed using GraphPad InStat version 3.0 (GraphPad Software Inc., San Diego, Calif., USA). The statistical significance of differences was determined by one-way analysis of variance (ANOVA) followed by Tukey's test for the experiments in FIG. 1f, by one-way ANOVA followed by Dunnett's multiple comparison test for the experiment in FIG. 3b, by two-way ANOVA followed by Bonferroni's test for the experiment in FIG. 1j-l. Probability values less than 5% were considered significant.

Data set [2] concerns purified ES-derived Rx+ cells. Description: Differentiation of ES-derived photoreceptor precursors into opsin+ cone and rhodopsin+ rod photoreceptors. The class given is cell-based, mouse. The following applies: for rod differentiation, factor added individually: after FACS purification and DAPT, acidic FGF 50 ng/ml, basic FGF 10 ng/ml, taurine 1 mM, shh 3 nM, RA 500 nM, from day 16, day 28. The procedure:
as §1
For photoreceptor differentiation, on day 16, the medium was replaced with a retinal culture medium containing the factors shown in FIG. 3a (66% E-MEM-HEPES (Sigma M7278), 33% HBSS (Gibco 24020-117), 1% FCS supplemented with N2, 5.75 mg/ml glucose, 200 μM L-glutamine, 100 U/ml penicillin, and 100 μg/ml streptomycin (Gibco)). aFGF (R & D Systems) and bFGF (R & D Systems) were added during differentiation for 16-24 days; taurine (Sigma), shh (R & D Systems), and RA (Sigma) were added during differentiation days 16-28. The medium was replaced with a fresh supply every 2 days.
as §3, §2, §4

A further data set has as its system monkey ES cells. In words: Differentiation of monkey ES cells into retinal cells (SFEB culture, immunocytochemistry). The class given is cell-based, cynomolgus monkey. The following applies: day 40, Dkk-1 100 ng/ml, Lefty-A 500 ng/ml. The procedure: ES colonies were partially dissociated with 0.25% trypsin (in a PBS containing 1 mM CaCl2 and 20% KSR) into clumps (5 to 10 cells per clump). It is noticeable that when this clumps of ES cells were too large (for example, exceeding 50 cells per aggregate), the neural induction efficiency declined. When ES cells dispersed to single cells were used, the cell viability declined, and retinal cells could not efficiently be induced. ES clumps were incubated on a gelatin-coated dish for 30 minutes, whereby STO feeders were removed. ES clumps were plated on a dish of bacterial grade using an ES differentiation medium at a density of 6.7×10^3 aggregate per ml. The composition of the differentiation medium was as follows. [G-MEM (GIBCO), 10% KSR, Lot.1139720 and 1219101, 0.1 mM non-essential amino acids, 1 mM pyruvate and 0.1 mM 2-mercaptoethanol]. […]
Values are expressed as means±S.E.M. For statistic analysis, 100 to 200 colonies in each experiment were examined, each experiment being performed at least 3 times. […] For the experiments in FIG. 7b, statistical significance of difference was determined by one-way analysis of variance (ANOVA) followed by Dunnet's test. The data obtained from FIG. 8a, d, e, h and i were evaluated by unpaired t-test. […]

[3] abbreviates: DAPT from day 10, retinal differentiation medium from day 16, day 28.

For the molecule `C[C@H](NC(=O)Cc1cc(F)cc(F)c1)C(=O)N[C@H](C(=O)OC(C)(C)C)c1ccccc1` [DAPT, N—[N-(3,5-difluorophenacetyl)-L-alanyl]-S-phenylglycine t-butyl ester], in data set [1] (10 μM DAPT, most effective on days 10 to 20), the “frequency of Crx+ cell aggregates” value is reported as “significantly raised”. Also, in data set [1] (Rx-GFP− cells treated with DAPT from day 10, day 20), the “Crx expression in Rx-GFP− cells” value is “did not express Crx”. In addition, the “promotion of differentiation into Crx+ photoreceptor precursors in non-FACS-sorted cells” value in data set [1] (non-FACS-sorted ES cell-derived neural retinal progenitor cells treated with DAPT) is recorded as “no evident promotion”. For the same molecule, the “percentage of Crx+ cells” value in data set [1] (sorted Rx-GFP+ cells, 10 μM DAPT from day 10, determined on day 20) is recorded as 22.4±2.9%. Also, the “ratio of Crx+ photoreceptor precursors in embryonic retinal tissue” value in the data set on Retinae of E17.5 mouse (tissue culture) is given as “considerably increased”. Besides, in the data set on Retinae of E17.5 mouse (tissue culture 2 or 4 days, RT-PCR), the “expression of the differentiation inhibitors Hes1 and Hes5” value is on record as “suppressed”. Moreover, the “proportion of cells positive for active caspase” value came out at 0.17±0.04% in the data set with purified Rx+ cells (day 11); 0.13±0.04% in the data set on purified Rx+ cells (day 12); 0.10±0.07% with purified Rx+ cells (day 14); 0.10±0.01% with purified Rx+ cells (day 16); 0.13±0.02% in the data set with purified Rx+ cells (day 18); 0.10±0.15% with purified Rx+ cells (day 20). The “Ki67+ cell population versus non-treated cells” value in the data set with purified Rx+ cells (day 14 and thereafter, DAPT from day 10) is “smaller”. The “proportion of cells positive for active caspase, DAPT-treated versus non-treated” value in the data set with purified Rx+ cells (days 11-20, Ki67+ population) is recorded as “no significant difference”. The “BrdU+ cells versus non-treated control” value in the data set with purified Rx+ cells (days 14-20, BrdU uptake 24 hours) was “fewer”. In addition, the “ES-derived cells expressing blue opsin” value in data set [2] (setting [3]) turned out to be 10.7±1.6%. Further, in data set [2] (setting [3]), the “ES-derived cells expressing red/green opsin” value turned out to be 11.5±2.0%. The molecule further had a cells expressing rhodopsin in data set [2] (DAPT only, no further factors, day 28) of 5.5±0.5%.

`NCCS(=O)(=O)O` [taurine]: the “rod differentiation, factor added individually” value (from here on “rod differentiation”) in data set [2] is “promoted rod differentiation”.

For the molecule “acidic FGF: acidic FGF (R & D Systems), soluble factor”, in data set [2], the “rod differentiation” value is “promoted rod differentiation”.

As to “basic FGF: basic FGF (R & D Systems), soluble factor”, the “rod differentiation” value in data set [2] is on record as “promoted rod differentiation”.

B1: Dkk-1: Recombinant Dkk-1 protein, Wnt antagonist (protein, UniProt O94907 32-266, looked up)
Dickkopf-related protein 1: TLNSVLNSNAIKNLPPPLGGAAGHPGSAVSAAPGILYPGGNKYQTIDNYQPYPCAEDEECGTDEYCASPTRGGDAGVQICLACRKRRKRCMRHAMCCPGNYCKNGICVSSDQNHFRGEIEETITESFGNDHSTLDGYSRRTTLSSKMYHTKGQEGSVCLRSSDCASGLCCARHFWSKICKPVLKEGQVCTKHRRKGSHGLEIFQRCYCGEGLSCRIQKDHHQASNSSRLHTCQRH
For the molecule B1, the “ratio of Mitf+ colonies” value with monkey ES cells came out at 35.3±4.4%.

B2: Lefty-A: Lefty-A protein, nodal antagonist (protein, UniProt O00292 77-366, looked up)
Left-right determination …: RFSQSFREVAGRFLASEASTHLLVFGMEQRLPPNSELVQAVLRLFQEPVPKAALHRHGRLSPRSAQARVTVEWLRVRDDGSNRTSLIDSRLVSVHESGWKAFDVTEAVNFWQQLSRPRQPLLLQVSVQREHLGPLASGAHKLVRFASQGAPAGLGEPQLELHTLDLRDYGAQGDCDPEAPMTEGTRCCRQEMYIDLQGMKWAKNWVLEPPGFLAYECVGTCQQPPEALAFNWPFLGPRQCIASETASLPMIVSIKEGGRTRPQVVSLPNMRVQKCSCASDGALVPRRLQP
On to B2, for which the “ratio of Mitf+ colonies” value in the data set on monkey ES cells came to 50.8±5.0%.
